Where two headings read alike, the source gives them in different places.
What was measured:
[1] = tested on: T-Rex 293 cell line SC3 cells having increased expression of androgen receptor protein due to exposure to doxycycline; experiment: Cellular growth inhibition assay, T-Rex 293 SC3 cells with doxycycline (CellTiter-Glo, 72 hours); assay type: cell-based; settings: T-Rex 293 SC3 cells with increased androgen receptor expression due to doxycycline (10 ng/mL)
How it was run: (§1)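 Growth inhibition is measured in an inducible AR-expressing T-Rex 293 clone, SC3, cultured with or without 10 ng/mL doxycycline in hormone-depleted medium. Test compounds are applied for 72 hours. GI50 values derive from CellTiter-Glo 2.0 signal fitted by four-parameter regression.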

[2] = tested on: T-Rex 293 cell line SC3 cells lacking increased expression of androgen receptor protein; experiment: Cellular growth inhibition assay, T-Rex 293 SC3 cells without doxycycline (CellTiter-Glo, 72 hours); assay type: cell-based; settings: T-Rex 293 cell line SC3 cells not exposed to doxycycline (lacking increased androgen receptor expression)
How it was run: as §1

VCaP cells = experiment: Cellular growth inhibition assay for VCaP cells (CellTiter-Glo, 72 hours); assay type: cell-based, human
How it was run: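 Luminescent viability signal after 72 h of compound exposure gave GI50 values by four-parameter nonlinear regression. Compounds were added in 0.5% DMSO to cells plated 24 h earlier at 5000/well in DMEM containing 10% FBS.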

Row | GI50 (VCaP cells; Homo sapiens, VCaP, 72 h) | GI50 (VCaP cells) | Structure (SMILES) | GI50 ([1]; 72 h) | GI50 ([2]; 72 h) | GI50 [2] | GI50 [1]
1 | > 3000 nM | – | CC[C@@H]1N=C(c2ccc(N3CCC4(CCN(c5ccc(C(=O)N[C@H]6CC[C@H](Oc7ccc(C#N)c(Cl)c7)CC6)nn5)CC4)C3)cc2)c2c(sc(C)c2C)-n2c(C)nnc21 [I-599] | < 500 nM | > 3000 nM | – | –
2 | < 500 nM | – | Cc1sc2c(c1C)C(c1ccc(N3CC4(CC(Cc5ccc(C(=O)N[C@H]6CC[C@H](Oc7ccc(C#N)c(Cl)c7)CC6)nn5)C4)C3)cc1)=N[C@@H](C)c1nnc(C)n1-2 [I-604] | < 500 nM | < 500 nM | – | –
3 | < 500 nM | – | CC[C@@H]1N=C(c2ccc(N3CCC4(CC3)CC(Cc3ccc(C(=O)N[C@H]5CC[C@H](Oc6ccc(C#N)c(Cl)c6)CC5)nn3)C4)cc2)c2c(sc(C)c2C)-n2c(C)nnc21 [I-612] | < 500 nM | > 3000 nM | – | –
4 | < 500 nM | – | CC[C@@H]1N=C(c2ccc(N3CCC(CCc4ccc(C(=O)N[C@H]5CC[C@H](Oc6ccc(C#N)c(Cl)c6)CC5)nn4)CC3)cc2)c2c(sc(C)c2C)-n2c(C)nnc21 [I-613] | < 500 nM | 1500 to 3000 nM | – | –
5 | < 500 nM | – | CC[C@@H]1N=C(c2ccc(N3CCC(Cc4ccc(C(=O)N[C@H]5CC[C@H](Oc6ccc(C#N)c(Cl)c6)CC5)nn4)CC3)cc2)c2c(sc(C)c2C)-n2c(C)nnc21 [I-614] | < 500 nM | 500 to 1500 nM | – | –
6 | < 500 nM | – | COC[C@@H]1N=C(c2ccc(N3CCC4(CCN(c5ccc(C(=O)N[C@H]6CC[C@H](Oc7ccc(C#N)c(Cl)c7)CC6)nn5)CC4)C3)cc2)c2c(sc(C)c2C)-n2c(C)nnc21 [I-615] | < 500 nM | < 500 nM | – | –
7 | – | > 3000 nM | COCC[C@@H]1N=C(c2ccc(C3CCC4(CCN(c5ccc(C(=O)N[C@H]6CC[C@H](Oc7ccc(C#N)c(Cl)c7)CC6)nn5)CC4)C3)cc2)c2c(sc(C)c2C)-n2c(C)nnc21 (stereo partly drawn) [I-616] | < 500 nM | < 500 nM | – | –
8 | – | > 3000 nM | Cc1sc2c(c1C)C(c1ccc(CC3CCC4(CCCN(c5ccc(C(=O)N[C@H]6CC[C@H](Oc7ccc(C#N)c(Cl)c7)CC6)nn5)C4)C3)cn1)=N[C@@H](C)c1nnc(C)n1-2 (stereo partly drawn) [I-622] | < 500 nM | < 500 nM | – | –
9 | – | 500 to 1500 nM | Cc1sc2c(c1C)C(c1ccc(CC3CCC4(CCCN(c5ccc(C(=O)N[C@H]6CC[C@H](Oc7ccc(C#N)c(Cl)c7)CC6)nn5)C4)C3)cn1)=N[C@@H](C)c1nnc(C)n1-2 (stereo partly drawn) [I-623] | – | – | 500 to 1500 nM | < 500 nM
10 | < 500 nM | – | Cc1sc2c(c1C)C(c1ccc(OCC3CCC4(CCCN(c5ccc(C(=O)N[C@H]6CC[C@H](Oc7ccc(C#N)c(Cl)c7)CC6)nn5)C4)C3)cc1)=N[C@@H](C)c1nnc(C)n1-2 (stereo partly drawn) [I-626] | < 500 nM | < 500 nM | – | –

Further lines, the molecule ahead of its results:

Row | Structure (SMILES) | GI50 (VCaP cells; Homo sapiens, VCaP, 72 h) | GI50 (VCaP cells) | GI50 ([1]; 72 h) | GI50 ([2]; 72 h) | GI50 [2] | GI50 [1]
11 | COCC[C@@H]1N=C(c2ccc(N3CCC4(CCN(c5ccc(C(=O)N[C@H]6CC[C@H](Oc7ccc(C#N)c(Cl)c7)CC6)nn5)CC4)C3)cc2)c2c(sc(C)c2C)-n2c(C)nnc21 [I-600] | > 3000 nM | – | < 500 nM | < 500 nM | – | –
12 | Cc1sc2c(c1C)C(c1ccc(N3CCC4(CC3)CC(Cc3ccc(C(=O)N[C@H]5CC[C@H](Oc6ccc(C#N)c(Cl)c6)CC5)nn3)C4)cc1)=N[C@@H](C)c1nnc(C)n1-2 [I-605] | < 500 nM | – | < 500 nM | > 3000 nM | – | –
13 | Cc1sc2c(c1C)C(c1ccc(N3CCC(Cc4ccc(C(=O)N[C@H]5CC[C@H](Oc6ccc(C#N)c(Cl)c6)CC5)nn4)CC3)cc1)=N[C@@H](C)c1nnc(C)n1-2 [I-606] | > 3000 nM | – | < 500 nM | > 3000 nM | – | –
14 | Cc1sc2c(c1C)C(c1ccc(C3CCC4(CC3)CCN(c3ccc(C(=O)N[C@H]5CC[C@H](Oc6ccc(C#N)c(Cl)c6)CC5)nn3)C4)nc1)=NC1(CC1)c1nnc(C)n1-2 (stereo partly drawn) [I-607] | – | > 3000 nM | < 500 nM | – | > 3000 nM | –
15 | Cc1sc2c(c1C)C(c1ccc(C3CCC4(CC3)CCN(c3ccc(C(=O)N[C@H]5CC[C@H](Oc6ccc(C#N)c(Cl)c6)CC5)nn3)C4)nc1)=NC1(CC1)c1nnc(C)n1-2 (stereo partly drawn) [I-608] | – | < 500 nM | – | – | 500 to 1500 nM | < 500 nM
16 | Cc1sc2c(c1C)C(c1ccc(C3CCC4(CCN(c5ccc(C(=O)N[C@H]6CC[C@H](Oc7ccc(C#N)c(Cl)c7)CC6)nn5)CC4)C3)nc1)=NC1(CC1)c1nnc(C)n1-2 (stereo partly drawn) [I-609] | < 500 nM | – | < 500 nM | – | 500 to 1500 nM | –
17 | CC[C@@H]1N=C(c2ccc(N3CC4(CC(Cc5ccc(C(=O)N[C@H]6CC[C@H](Oc7ccc(C#N)c(Cl)c7)CC6)nn5)C4)C3)cc2)c2c(sc(C)c2C)-n2c(C)nnc21 [I-610] | 500 to 1500 nM | – | < 500 nM | > 3000 nM | – | –
18 | CC[C@@H]1N=C(c2ccc(N3CC4(CC(CCc5ccc(C(=O)N[C@H]6CC[C@H](Oc7ccc(C#N)c(Cl)c7)CC6)nn5)C4)C3)cc2)c2c(sc(C)c2C)-n2c(C)nnc21 [I-611] | < 500 nM | – | < 500 nM | > 3000 nM | – | –
19 | COCC[C@@H]1N=C(c2ccc(C3CCC4(CCN(c5ccc(C(=O)N[C@H]6CC[C@H](Oc7ccc(C#N)c(Cl)c7)CC6)nn5)CC4)C3)cc2)c2c(sc(C)c2C)-n2c(C)nnc21 (stereo partly drawn) [I-617] | – | < 500 nM | – | – | 500 to 1500 nM | < 500 nM
20 | Cc1sc2c(c1C)C(c1ccc(N3CCC4CN(c5ccc(C(=O)N[C@H]6CC[C@H](Oc7ccc(C#N)c(Cl)c7)CC6)nn5)CCC4C3)cc1)=N[C@@H](C)c1nnc(C)n1-2 (stereo partly drawn) [I-620] | – | < 500 nM | – | – | < 500 nM | < 500 nM
21 | Cc1sc2c(c1C)C(c1ccc(N3CCC4CN(c5ccc(C(=O)N[C@H]6CC[C@H](Oc7ccc(C#N)c(Cl)c7)CC6)nn5)CCC4C3)cc1)=N[C@@H](C)c1nnc(C)n1-2 (stereo partly drawn) [I-621] | – | 500 to 1500 nM | – | – | > 3000 nM | < 500 nM
22 | Cc1sc2c(c1C)C(c1ccc(COC3CCC4(CCCN(c5ccc(C(=O)N[C@H]6CC[C@H](Oc7ccc(C#N)c(Cl)c7)CC6)nn5)C4)C3)cc1)=N[C@@H](C)c1nnc(C)n1-2 (stereo partly drawn) [I-624] | – | 500 to 1500 nM | – | – | 500 to 1500 nM | < 500 nM
23 | Cc1sc2c(c1C)C(c1ccc(COC3CCC4(CCCN(c5ccc(C(=O)N[C@H]6CC[C@H](Oc7ccc(C#N)c(Cl)c7)CC6)nn5)C4)C3)cc1)=N[C@@H](C)c1nnc(C)n1-2 (stereo partly drawn) [I-625] | – | < 500 nM | – | – | < 500 nM | < 500 nM
24 | Cc1sc2c(c1C)C(c1ccc(OCC3CCC4(CCCN(c5ccc(C(=O)N[C@H]6CC[C@H](Oc7ccc(C#N)c(Cl)c7)CC6)nn5)C4)C3)cc1)=N[C@@H](C)c1nnc(C)n1-2 (stereo partly drawn) [I-627] | – | < 500 nM | – | – | < 500 nM | < 500 nM
25 | Cc1sc2c(c1C)C(c1ccc(CC3CC(CC4CCN(c5ccc(C(=O)N[C@H]6CC[C@H](Oc7ccc(C#N)c(Cl)c7)CC6)nn5)CC4)C3)cc1)=N[C@@H](C)c1nnc(C)n1-2 (stereo partly drawn) [I-628] | < 500 nM | – | < 500 nM | > 3000 nM | – | –
26 | Cc1sc2c(c1C)C(c1ccc(CC3CC(CC4CCN(c5ccc(C(=O)N[C@H]6CC[C@H](Oc7ccc(C#N)c(Cl)c7)CC6)nn5)CC4)C3)cc1)=N[C@@H](C)c1nnc(C)n1-2 (stereo partly drawn) [I-629] | – | < 500 nM | – | – | > 3000 nM | < 500 nM
27 | Cc1sc2c(c1C)C(c1ccc(C3CCC4(CC3)CCN(c3ccc(C(=O)N[C@H]5CC[C@H](Oc6ccc(C#N)c(Cl)c6)CC5)nn3)CC4)nc1)=N[C@@H](C)c1nnc(C)n1-2 [I-630] | – | 1500 to 3000 nM | < 500 nM | < 500 nM | – | –
28 | Cc1sc2c(c1C)C(Oc1ccc(C3CC4(CCN(c5ccc(C(=O)N[C@H]6CC[C@H](Oc7ccc(C#N)c(Cl)c7)CC6)nn5)CC4)C3)cc1)=NC(Cc1ncco1)c1nnc(C)n1-2 (stereo partly drawn) [I-631] | < 500 nM | – | > 3000 nM | > 3000 nM | – | –
29 | CC[C@@H]1N=C(c2ccc(OC3(C)CC4(CN(c5ccc(C(=O)N[C@H]6CC[C@H](Oc7ccc(C#N)c(Cl)c7)CC6)nn5)C4)C3)cc2)c2c(sc(C)c2C)-n2c(C)nnc21 [I-632] | < 500 nM | – | < 500 nM | < 500 nM | – | –
30 | Cc1sc2c(c1C)C(c1ccc(CC3CCC4(CCCN(c5ccc(C(=O)N[C@H]6CC[C@H](Oc7ccc(C#N)c(Cl)c7)CC6)nn5)C4)C3)cn1)=N[C@@H](C)c1nnc(C)n1-2 (stereo partly drawn) [I-635] | – | < 500 nM | – | – | < 500 nM | < 500 nM
31 | Cc1sc2c(c1C)C(c1ccc(CC3CCC4(CCCN(c5ccc(C(=O)N[C@H]6CC[C@H](Oc7ccc(C#N)c(Cl)c7)CC6)nn5)C4)C3)cn1)=N[C@@H](C)c1nnc(C)n1-2 (stereo partly drawn) [I-636] | – | < 500 nM | – | – | 500 to 1500 nM | < 500 nM
